The values that follow come from patent US20250026721A1, “COMPOUNDS AND METHODS FOR MODULATING RAS-PI3K” (Vividion Therapeutics, Inc., priority 2023, published 2025).

For one experiment, the target named is T1, PIK3CA (Homo sapiens, UniProt P42336).
T1 construct: endogenous in cells; host or cells: Jurkat cell lysate
The experiment in a line: In vitro ELISA target engagement assay for PIK3CA in Jurkat cellular lysate (competition with PIK3CA Biotin Probe). Type of experiment: binding. The settings on record: 1 hour at rt, then 500 nM PIK3CA Biotin Probe, read-out: Elisa Target Engagement Assay (TE50). Put shortly: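 Jurkat lysate from sonicated frozen cells was preincubated 1 h at rt with serially diluted compound up to 200 μM, then labelled 1 h at rt with PIK3CA biotin probe at 500 nM final. Probe-bound PIK3CA was captured on antibody-coated plates and detected with Neutravidin-HRP luminescence; TE50 derived from the dose response.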

In experiment [1] the test system is pAKT(S473) in FaDu cell line. The experiment in a line: In vitro Phospho-AKT(S473) HTRF analysis in FaDu cells. Type of experiment: cell-based. Conditions: Homo sapiens, 0.5 h; for IC50: FaDu cells, 30 minutes at 37° C.; for Emax: FaDu, read-out: FaDu pAKT Imax % control. How it is done: Example 5. In Vitro Phosgho-AKT(S473) Analysis
Functional activity of the compounds to inhibit pAKT were assessed in FaDu or H358 cell lines as indicated below.
• Complete Media • FBS, Corning catalog #35-010-CV • Anti-Anti, Gibco catalog #15240-062 • 96 well plate, Corning catalog #3610 • TrypLE, Gibco catalog #12604013 • Phospho-AKT(S473) HTRF kit, Cisbio catalog #64AKSPET
Cells were detached from the tissue culture flask with TrypLE. The cells were pelleted at 500×g for 5 min, TrypLe was removed and then resuspended in the necessary volume of media+1% FBS to give the appropriate cell density (17,500 cells/mL for FaDu; 20,000 cells/mL for H358). 100 μL of cell suspension/well was dispensed into the 96-well plate while keeping the outer wells of the plate free of cells and filled with PBS to prevent evaporation of interior wells. The plate was incubated at 37° C. and allowed to adhere overnight. The cells were treated with a dose response of compound and incubated at 37° C. for 30 minutes. The cells were then processed and pAKT(S473) levels were assessed following the specifications of the Cisbio HTRF kit.

The target of a further experiment is T2, PIK3CA_C242 (Homo sapiens, UniProt P42336).
T2 construct: endogenous in cells; host or cells: Jurkat cell lysate
T2 sequence (P42336 whole entry): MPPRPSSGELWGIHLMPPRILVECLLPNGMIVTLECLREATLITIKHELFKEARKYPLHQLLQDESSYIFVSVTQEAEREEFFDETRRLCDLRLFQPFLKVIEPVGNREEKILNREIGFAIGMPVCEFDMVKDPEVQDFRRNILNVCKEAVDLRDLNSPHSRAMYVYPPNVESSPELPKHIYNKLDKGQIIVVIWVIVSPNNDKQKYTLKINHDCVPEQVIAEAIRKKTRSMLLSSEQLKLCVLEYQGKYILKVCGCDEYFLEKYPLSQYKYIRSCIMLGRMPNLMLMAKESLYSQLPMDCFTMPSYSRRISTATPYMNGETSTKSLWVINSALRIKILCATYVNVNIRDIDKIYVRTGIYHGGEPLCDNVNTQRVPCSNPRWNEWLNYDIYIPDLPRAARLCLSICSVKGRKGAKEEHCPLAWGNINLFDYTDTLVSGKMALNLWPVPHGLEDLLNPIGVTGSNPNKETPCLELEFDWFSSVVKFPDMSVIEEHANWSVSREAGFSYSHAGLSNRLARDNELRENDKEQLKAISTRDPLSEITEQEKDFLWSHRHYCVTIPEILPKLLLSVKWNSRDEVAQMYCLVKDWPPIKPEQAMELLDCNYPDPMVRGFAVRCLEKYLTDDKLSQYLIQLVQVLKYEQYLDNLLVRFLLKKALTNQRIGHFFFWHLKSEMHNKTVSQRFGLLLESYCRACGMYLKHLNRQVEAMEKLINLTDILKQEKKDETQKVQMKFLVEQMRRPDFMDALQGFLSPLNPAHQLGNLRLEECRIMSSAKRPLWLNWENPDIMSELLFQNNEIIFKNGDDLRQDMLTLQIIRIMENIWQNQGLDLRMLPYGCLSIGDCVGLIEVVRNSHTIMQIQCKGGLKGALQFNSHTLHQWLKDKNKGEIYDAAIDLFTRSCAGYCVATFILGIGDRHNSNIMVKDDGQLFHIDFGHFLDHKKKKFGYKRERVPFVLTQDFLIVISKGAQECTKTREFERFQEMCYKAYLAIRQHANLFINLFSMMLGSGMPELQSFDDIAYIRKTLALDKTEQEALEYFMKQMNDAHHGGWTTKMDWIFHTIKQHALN
T2 sequence (P27986 whole entry partner): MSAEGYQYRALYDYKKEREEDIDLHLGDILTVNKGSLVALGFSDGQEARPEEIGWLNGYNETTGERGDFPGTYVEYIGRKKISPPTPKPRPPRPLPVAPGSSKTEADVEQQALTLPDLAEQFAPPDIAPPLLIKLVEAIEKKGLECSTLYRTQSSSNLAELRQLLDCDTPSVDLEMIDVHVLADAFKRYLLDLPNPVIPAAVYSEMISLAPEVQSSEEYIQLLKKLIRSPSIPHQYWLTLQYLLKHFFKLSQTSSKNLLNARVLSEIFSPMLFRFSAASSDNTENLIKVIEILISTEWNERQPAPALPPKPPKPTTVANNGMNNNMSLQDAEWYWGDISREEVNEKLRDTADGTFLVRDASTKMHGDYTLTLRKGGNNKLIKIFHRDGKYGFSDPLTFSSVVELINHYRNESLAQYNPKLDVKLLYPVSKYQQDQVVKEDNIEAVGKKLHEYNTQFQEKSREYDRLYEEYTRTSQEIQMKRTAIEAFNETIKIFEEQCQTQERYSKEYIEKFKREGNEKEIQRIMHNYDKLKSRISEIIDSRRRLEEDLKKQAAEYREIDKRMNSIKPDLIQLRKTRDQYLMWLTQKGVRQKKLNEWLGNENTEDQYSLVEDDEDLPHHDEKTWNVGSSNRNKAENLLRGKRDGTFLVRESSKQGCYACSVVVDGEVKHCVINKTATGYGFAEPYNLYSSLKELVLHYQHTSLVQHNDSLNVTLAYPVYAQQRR
The experiment in a line: Proteomic TE50 (IA-DTB / TMT mass spectrometry) in Jurkat cell lysate. Conditions: 1 hour at rt, 7-point dose response. In kind it is binding. Put shortly: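 Jurkat lysate (500 μg) treated with compound (7-point, 1:5 dilutions) for 1 h at rt, then labelled with 200 μM IA-DTB for 1 h. After digestion and streptavidin enrichment, the C242 peptide was quantified by targeted MS3 TMT. TE50 was derived from reporter-ion S/N dose-response curves.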

T1 sequence (P42336 whole entry): as the sequence (P42336 whole entry) above
T1 sequence (P27986 whole entry partner): as the sequence (P27986 whole entry partner) above

As to `C[C@H](/C=C\S(C)(=O)=O)NC(=O)[C@]1(F)CCN(S(=O)(=O)c2ccc(OC(F)(F)F)cc2-c2ccccc2Cl)[C@H](C)C1` [Compound 250, (2R,4S)-1-((2′-chloro-5-(trifluoromethoxy)-[1,1′-biphenyl]-2-yl)sulfonyl)-4-fluoro-2-methyl-N-((R,Z)-4-(methylsulfonyl)but-3-en-2-yl)piperidine-4-carboxamide], the IC50 at PIK3CA turned out to be 350 nM. Further, in experiment [1], the IC50 came out at 1640 nM and the Emax amounted to 96.8%.

Consider `C[C@H](/C=C\S(C)(=O)=O)NC(=O)[C@@]1(F)CCCN(C(=O)c2ccc(Br)cc2-c2ccccc2Cl)CC1` [Compound 241, (R)-1-(5-bromo-2′-chloro-[1,1′-biphenyl]-2-carbonyl)-4-fluoro-N-((R,Z)-4-(methylsulfonyl)but-3-en-2-yl)azepane-4-carboxamide], for which the IC50 at PIK3CA was 62 nM; in experiment [1], 281 nM. For the same molecule, the Emax in experiment [1] stood at 95.3%.

For the molecule `C[C@@H](/C=C\S(C)(=O)=O)NC(=O)C1(F)CCN(S(=O)(=O)c2ccc(Br)cc2-c2ccccc2Cl)CC1` [Compound 62, (S,Z)-1-((5-bromo-2′-chloro-[1,1′-biphenyl]-2-yl)sulfonyl)-4-fluoro-N-(4-(methylsulfonyl)but-3-en-2-yl)piperidine-4-carboxamide], in experiment [1], the IC50 amounted to 27.5 nM and the Emax is 85.2%.

In the case of `COc1ccc(S(=O)(=O)N2CCC(F)(C(=O)N[C@H](C)/C=C\S(C)(=O)=O)CC2)c(-c2ccccc2C)c1` [Compound 24, (R,Z)-4-fluoro-1-((5-methoxy-2′-methyl-[1,1′-biphenyl]-2-yl)sulfonyl)-N-(4-(methylsulfonyl)but-3-en-2-yl)piperidine-4-carboxamide], the IC50 against PIK3CA_C242 turned out to be 232 nM; on PIK3CA it was 170 nM.

In the case of `CC#CCOc1cccc(-c2cc(Cl)ccc2S(=O)(=O)N2CCC(F)(C(=O)N[C@@H](C)/C=C\S(C)(=O)=O)CC2)c1` [Compound 264, (S,Z)-1-((3′-(but-2-yn-1-yloxy)-5-chloro-[1,1′-biphenyl]-2-yl)sulfonyl)-4-fluoro-N-(4-(methylsulfonyl)but-3-en-2-yl)piperidine-4-carboxamide], the IC50 is 510 nM against PIK3CA_C242 and 480 nM on PIK3CA.

Turning to `C[C@@H](/C=C\S(C)(=O)=O)NC(=O)C1(F)CCN(S(=O)(=O)c2ccc(Cl)cc2-c2cccc(OC3CCC3)c2)CC1` [Compound 263, (S,Z)-1-((5-chloro-3′-cyclobutoxy-[1,1′-biphenyl]-2-yl)sulfonyl)-4-fluoro-N-(4-(methylsulfonyl)but-3-en-2-yl)piperidine-4-carboxamide], the IC50 against PIK3CA_C242 amounted to 930 nM; on PIK3CA it was 1000 nM.

With `COc1cccc(-c2cc(N(C)C)ccc2S(=O)(=O)N2CCC(F)(C(=O)N[C@@H](C)/C=C\S(C)(=O)=O)CC2)c1Cl` [Compound 90, (S,Z)-1-((2′-chloro-5-(dimethylamino)-3′-methoxy-[1,1′-biphenyl]-2-yl)sulfonyl)-4-fluoro-N-(4-(methylsulfonyl)but-3-en-2-yl)piperidine-4-carboxamide], the values for the IC50 against PIK3CA_C242 and on PIK3CA were 330 nM and 250 nM, respectively.

With `C[C@H](/C=C\S(C)(=O)=O)NC(=O)C1(F)CCN(S(=O)(=O)c2cc(=O)n(C)cc2-c2ccccc2Cl)CC1` [Compound 275, (R,Z)-1-((5-(2-chlorophenyl)-1-methyl-2-oxo-1,2-dihydropyridin-4-yl)sulfonyl)-4-fluoro-N-(4-(methylsulfonyl)but-3-en-2-yl)piperidine-4-carboxamide], the results for the IC50 on PIK3CA_C242 and at PIK3CA were 910 nM and 1300 nM, respectively.

Consider `C[C@H](/C=C\S(C)(=O)=O)NC(=O)C1(F)CCN(S(=O)(=O)c2ccc(OC(F)(F)F)cc2-c2ccccc2Cl)CC1` [Compound 34, (R,Z)-1-((2′-chloro-5-(trifluoromethoxy)-[1,1′-biphenyl]-2-yl)sulfonyl)-4-fluoro-N-(4-(methylsulfonyl)but-3-en-2-yl)piperidine-4-carboxamide], for which the IC50 was 700 nM on PIK3CA_C242 and 550 nM on PIK3CA.

As to `CCCOc1cccc(-c2cc(Cl)ccc2S(=O)(=O)N2CCC(F)(C(=O)N[C@@H](C)/C=C\S(C)(=O)=O)CC2)c1` [Compound 14, (S,Z)-1-((5-chloro-3′-propoxy-[1,1′-biphenyl]-2-yl)sulfonyl)-4-fluoro-N-(4-(methylsulfonyl)but-3-en-2-yl)piperidine-4-carboxamide], the IC50 on PIK3CA_C242 stood at 330 nM; on PIK3CA it was 470 nM.

For the molecule `Cc1ccccc1-c1cc(N(C)C)ccc1S(=O)(=O)N1CCC(F)(C(=O)N[C@H](C)/C=C\S(C)(=O)=O)CC1` [Compound 93, (R,Z)-1-((5-(dimethylamino)-2′-methyl-[1,1′-biphenyl]-2-yl)sulfonyl)-4-fluoro-N-(4-(methylsulfonyl)but-3-en-2-yl)piperidine-4-carboxamide], the IC50 against PIK3CA_C242 is 75.5 nM; at PIK3CA, 150 nM.

Regarding `C[C@@H](/C=C\S(C)(=O)=O)NC(=O)C1(F)CCN(S(=O)(=O)c2ccc(Cl)cc2-c2cccc(OCc3cccc(Cl)c3)c2)CC1` [Compound 266, (S,Z)-1-((5-chloro-3′-((3-chlorobenzyl)oxy)-[1,1′-biphenyl]-2-yl)sulfonyl)-4-fluoro-N-(4-(methylsulfonyl)but-3-en-2-yl)piperidine-4-carboxamide], the IC50 on PIK3CA_C242 was 600 nM; at PIK3CA, 750 nM.

Turning to `C[C@H](/C=C\S(C)(=O)=O)NC(=O)C1(F)CCN(S(=O)(=O)c2ccc(Cl)cc2-c2ccccc2)CC1` [Compound 20, (R,Z)-1-((5-chloro-[1,1′-biphenyl]-2-yl)sulfonyl)-4-fluoro-N-(4-(methylsulfonyl)but-3-en-2-yl)piperidine-4-carboxamide], the IC50 on PIK3CA_C242 stood at 462 nM; on PIK3CA it was 680 nM.

Regarding `COc1ccc(S(=O)(=O)N2CCC(F)(C(=O)N[C@H](C)/C=C\S(C)(=O)=O)CC2)c(-c2cccc(F)c2Cl)c1` [Compound 26, (R,Z)-1-((2′-chloro-3′-fluoro-5-methoxy-[1,1′-biphenyl]-2-yl)sulfonyl)-4-fluoro-N-(4-(methylsulfonyl)but-3-en-2-yl)piperidine-4-carboxamide], the IC50 at PIK3CA_C242 came to 371 nM; on PIK3CA, 384 nM.

As for `COc1cccc(COc2cccc(-c3cc(Cl)ccc3S(=O)(=O)N3CCC(F)(C(=O)N[C@@H](C)/C=C\S(C)(=O)=O)CC3)c2)c1` [Compound 261, (S,Z)-1-((5-chloro-3′-((3-methoxybenzyl)oxy)-[1,1′-biphenyl]-2-yl)sulfonyl)-4-fluoro-N-(4-(methylsulfonyl)but-3-en-2-yl)piperidine-4-carboxamide], the IC50 at PIK3CA_C242 is 730 nM; on PIK3CA it was 480 nM.

In the case of `COc1ccc(Cl)c(-c2cc(Cl)ncc2S(=O)(=O)N2CCC(F)(C(=O)N[C@@H](C)/C=C\S(C)(=O)=O)CC2)c1` [Compound 271, (S,Z)-1-((6-chloro-4-(2-chloro-5-methoxyphenyl)pyridin-3-yl)sulfonyl)-4-fluoro-N-(4-(methylsulfonyl)but-3-en-2-yl)piperidine-4-carboxamide], the IC50 at PIK3CA_C242 is 209 nM; at PIK3CA, 170 nM.

As for `C[C@H](/C=C\S(C)(=O)=O)NC(=O)C1(F)CCN(S(=O)(=O)c2ccc(N(C)C)cc2-c2ccccc2)CC1` [Compound 91, (R,Z)-1-((5-(dimethylamino)-[1,1′-biphenyl]-2-yl)sulfonyl)-4-fluoro-N-(4-(methylsulfonyl)but-3-en-2-yl)piperidine-4-carboxamide], the IC50 on PIK3CA_C242 was 430 nM; on PIK3CA, 280 nM.
